What was measured:
[1] = tested on: ischemic brain stroke patients treated with mechanical thrombectomy; experiment: Treatment with uric acid of ischemic brain stroke patients treated with intravenous thrombolysis and mechanical thrombectomy; type: in vivo, humans
From the text: Example 1. Treatment with uric acid of ischemic brain stroke patients treated with intravenous thrombolysis and mechanical thrombectomy.
In total, 45 ischemic brain stroke patients were enrolled in this study and received the combination of thrombolytic treatment (using rt-PA) and mechanical thrombectomy. […] The patients of this study were recruited at eight centres and, in all the cases, the corresponding informed consent was obtained from the patient or its legal representative.
(§1) All patients that were selected for the study received one standard dose ([…]) of rtPA (in the present case, intravenous alteplase) within the 4.5 hours following the brain stroke. During infusion of intravenous alteplase, patients were assigned randomly in a 1:1 proportion to the uric acid group or to the placebo group, so that they received 500 ml of intravenous solution of 1000 mg of uric acid or placebo (physiologic serum comprising 0.1% […] and 5% mannitol), respectively, both contained in glass bottles covered with opaque yellow bags tag in identical manner. Said treatment with uric acid or placebo was applied during 90 minutes.
The mechanical thrombectomy procedure was carried in accordance to the procedure pointed out in the REVASCAT assay (Jovin T G, Chamorro A, Cobo E, de Miguel M A, Molina C A, Rovira A, San Román L, Serena J, Abilleira S, Ribó M, Millán M, Urra X, Cardona P, López-Cancio E, Tomasello A, Castaño C, Blasco J, Aja L, Dorado L, Quesada H, Rubiera M, Hernandez-Pérez M, Goyal M, Demchuk A M, von Kummer R, Gallofré M, Dávalos A; REVASCAT Trial Investigators.. Thrombectomy within 8 hours after symptom onset in ischemic stroke. N Engl J Med. 2015; 372:2296-306) and it was started before the 90 minutes of the infusion of the composition with uric acid or placebo had elapsed.
To determine if the revascularization was successful the conventional technique of digital angiography by subtraction was used. Successful vessel revascularization was considered that with grade 2b (indicating reperfusion of from 50% to 90% of the damaged zone), or grade 3 (complete reperfusion of the damaged zone) in accordance with the modified Thrombolysis in Cerebral Infarction (hereinafter, mTICI) scale of 0 to 3.
In addition, certain parameters (death, incidence of intracranial hemorrhages and incidence of gout attacks) were measured in order to determine the safety of the new treatment (treatment of the present invention).

[2] = tested on: patients with ischemic brain stroke not treated with mechanical thrombectomy; experiment: Same type of study in ischemic brain stroke patients not treated with mechanical thrombectomy; type: in vivo, humans
Procedure: as §1
The same type of study was carried out with other subpopulations with ischemic brain stroke (not treated with mechanical thrombectomy, but the rest of the treatment and the procedure was the same).

[3] = tested on: occlusion of the middle cerebral artery; conditions: adult rat; uric acid 24 hours before the occlusion or 1 hour after the reperfusion; cited from earlier work
[4] = tested on: thromboembolism model of focal cerebral ischemia; conditions: rat thromboembolism model; synergic with rtPA; cited from earlier work
[5] = tested on: patients with acute stroke; conditions: URICO-ICTUS phase 2b/3, cited from earlier work
[6] = tested on: hippocampus cells; conditions: culture of hippocampus cells; cited from earlier work
[7] = in words, with mechanical thrombectomy
[8] = with mechanical thrombectomy, uric acid group n = 24
[9] = Patients which consume alcohol, uric acid n = 10
[10] = Patients which have suffered previous brain stroke, uric acid n = 30
[11] = Patients with atrial fibrillation, uric acid n = 35
[12] = Patients with cardioembolism, uric acid n = 86
[13] = Patients with coronary disease, uric acid n = 31
[14] = Patients with diabetes, uric acid n = 55
[15] = Patients with dyslipidaemia, uric acid n = 81
[16] = Smoking patients, uric acid n = 35
[17] = Women patients, uric acid n = 100
[18] = general population not treated with mechanical thrombectomy, uric acid n = 187
[19] = in words, general population without mechanical thrombectomy

Compound: O=c1[nH]c(=O)c2[nH]c(=O)[nH]c2[nH]1 [Uric acid, uric acid]
- successfulness in the revascularization, uric acid vs placebo ([1]; in words, mTICI grade 2b or 3): no significant differences
- complete independence of the patients at 90 days (Barthel index score of 95-100), uric acid vs placebo [1, 7]: statistically significant and surprising improvement
- good results at 90 days (mRS score of between 0-2), uric acid vs placebo [1, 7]: statistically significant and surprising improvement
- growth of the infarcted zone at 72 hours from the treatment, uric acid vs placebo [1, 7]: statistically significant and surprising improvement
- rest of measured parameters, uric acid vs placebo [1, 7]: positive and improvement tendency
- safety: death, incidence of intracranial hemorrhages and incidence of gout attacks, uric acid vs placebo [1, 7]: no differences were observed
- mTICI Score 0, number of patients ([1]; revascularization by digital subtraction angiography, uric acid 1000 mg i.v. + rtPA + mechanical thrombectomy, n = 24): 3
- mTICI Score 0, share of group (in parentheses) ([1]; revascularization by digital subtraction angiography, uric acid group n = 24): (13)
- mTICI Score 1, number of patients ([1]; uric acid group n = 24): 0
- mTICI Score 2a, number of patients ([1]; uric acid group n = 24): 1
- mTICI Score 2a, share of group (in parentheses) ([1]; uric acid group n = 24): (4)
- mTICI Score 2b, number of patients ([1]; uric acid group n = 24): 7
- mTICI Score 2b, share of group (in parentheses) ([1]; uric acid group n = 24): (29)
- mTICI Score 2b/3 (successful revascularization), number of patients ([1]; uric acid group n = 24): 20
- mTICI Score 2b/3 (successful revascularization), share of group (in parentheses) ([1]; uric acid group n = 24): (83)
- mTICI Score 3, number of patients ([1]; uric acid group n = 24): 13
- mTICI Score 3, share of group (in parentheses) ([1]; uric acid group n = 24): (54)
- mRS score of between 0-2 at 90 días, % ([1]; with mechanical thrombectomy, uric acid 1000 mg i.v. + rtPA, n = 24): (66.6) %
- Barthel index score of 95-100 at 90 days, % [1, 8]: (66.6) %
- Growth of the infarcted zone at 72 hours of the treatment, mean [1, 8]: -33.2 mL
- NIHSS score 0 at 90 days, % [1, 8]: (37.5) %
- Volume of the infarcted zone at 72 hours of the treatment measured by means of magnetic resonance image of the brain, mean [1, 8]: 17.2
- Barthel index score of 95-100 at 90 days, % ([2]; Men patients, uric acid n = 87): (50.6) %
- mRS score of between 0-2 at 90 dies, % ([2]; Men patients, uric acid n = 87): (51.7) %
- Barthel index score of 95-100 at 90 days, % [2, 9]: (20) %
- mRS score of between 0-2 at 90 dies, % [2, 9]: (40) %
- Barthel index score of 95-100 at 90 days, % [2, 10]: (40) %
- mRS score of between 0-2 at 90 dies, % [2, 10]: (43.3) %
- Barthel index score of 95-100 at 90 days, % [2, 11]: (31.4) %
- mRS score of between 0-2 at 90 dies, % [2, 11]: (42.9) %
- Barthel index score of 95-100 at 90 days, % [2, 12]: (45.3) %
- mRS score of between 0-2 at 90 dies, % [2, 12]: (48.8) %
- Barthel index score of 95-100 at 90 days, % [2, 13]: (51.6) %
- mRS score of between 0-2 at 90 dies, % [2, 13]: (45.2) %
- Barthel index score of 95-100 at 90 days, % [2, 14]: (45.8) %
- mRS score of between 0-2 at 90 dies, % [2, 14]: (45.5) %
- Barthel index score of 95-100 at 90 days, % [2, 15]: (50.6) %
- mRS score of between 0-2 at 90 dies, % [2, 15]: (49.4) %
- mRS score of between 0-2 at 90 dies, % ([2]; Patients with hypertension (arterial pressure over 160 mmHg), uric acid n = 131): (48.9) %
- Barthel index score of 95-100 at 90 days, % ([2]; Patients with hypertension, uric acid n = 131): (45.8) %
- mRS score of between 0-2 at 90 dies, % ([2]; Patients with large vessel arteriosclerosis (arterial stenosis +2250%), uric acid n = 19): (31.6) %
- Barthel index score of 95-100 at 90 days, % ([2]; Patients with large vessel arteriosclerosis, uric acid n = 19): (21.1) %
- Barthel index score of 95-100 at 90 days, % [2, 16]: (42.9) %
- mRS score of between 0-2 at 90 dies, % [2, 16]: (50) %
- Barthel index score of 95-100 at 90 days, % [2, 17]: (42) %
- mRS score of between 0-2 at 90 dies, % [2, 17]: (50) %
- Barthel index score of 95-100 at 90 days, % [2, 18]: 45.6%
- mRS score of between 0-2 at 90 dies, % [2, 18]: 44.7%
- effect in the percentage of patients with Barthel index score 95-100 [2, 19]: only a minimal effect
- effect in the percentage of patients with an mRS score of between 0 and 2 at 90 days [2, 19]: did not show a detectable effect
- lipid peroxidation [3]: reduces
- reactive oxygen species accumulation [3]: suppresses
- resulting cerebral infarction [3]: significantly reduces
- neuroprotective effect [4]: neuroprotective
- safety of uric acid in combination with the standard thrombolytic treatment (alteplase) [5]: safe
- proportion of patients with excellent results at 90 days ([5]; combined with alteplase): no change was seen
- protection against excitotoxic damage by glutamate [6]: protects against excitotoxic damage by glutamate

— patent US10709710B2, “Composition comprising uric acid for the treatment treated with mechanical thrombectomy” (Hospital Clinic de Barcelona, priority 2017, dated 2020)
